Experimental findings from ChEMBL document CHEMBL1201862, “PubChem BioAssay data set” (2004) are described below.

Some test systems named below: SF-295; A549; UACC-257; RPMI-8226; SK-MEL-5; CAKI-1; MOLT-4; BT-549; 786-0; SK-MEL-28; HOP-92; DU-145; UO-31; SK-OV-3; HCC 2998; PC-3; U-251; T47D; CCRF-CEM; LOX IMVI.
Common to all, as to assay: NCI anticancer screen, dose series, 48 h

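These data come from cells grown in 96-well plates and exposed to compound for 48 hours at five concentrations. GI50 marks 50% less growth.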 Active and inactive are the calls of the source. Rule as the data show it: active = GI50 up to about 1.1 µM and inactive = higher. Where only a bound is given, the exact number is not on record here.

`CC1=C(Nc2c(C)cc(O)cc2O)C(=O)C=c2oc3c(c21)C(C)=C(Nc1c(C)cc(O)cc1O)C(=O)C=3`: the GI50 was 24.4 µM (inactive) with SF-295; 38.5 µM (inactive) in the experiment with A549; 29.8 µM (inactive) in the experiment with UACC-257; 28.8 µM (inactive) in the experiment with RPMI-8226; 17.2 µM (inactive) in the experiment on SK-MEL-5; > 100 µM (inactive) in the experiment with CAKI-1. Moreover, the GI50 in the experiment on MOLT-4 is 27.4 µM (inactive); with BT-549, 32.9 µM (inactive); in the experiment with 786-0 it was 54.1 µM (inactive); in the experiment with SK-MEL-28, 52.5 µM (inactive); in the experiment with HOP-92, > 100 µM (inactive); in the experiment with DU-145, 54.3 µM (inactive). Moreover, the GI50 in the experiment on UO-31 is 50.8 µM (inactive); in the experiment with SK-OV-3 it was 45.7 µM (inactive); in the experiment on HCC 2998, 23.2 µM (inactive); with PC-3 it was 24.2 µM (inactive); with U-251, 37.8 µM (inactive); in the experiment on T47D it was 52.4 µM (inactive).
Take `COc1cc2c(cc1O)-c1c(OC)c(O)cc3c1C(C2)N(C)CC3` (stereo unspecified): the GI50 with SF-295, in the experiment on A549, in the experiment with UACC-257, in the experiment on RPMI-8226, in the experiment with SK-MEL-5 and in the experiment with CAKI-1 was > 100 µM (inactive) in each case. The GI50 in the experiment with MOLT-4, with BT-549, with CCRF-CEM, in the experiment on 786-0, in the experiment with HOP-92 and in the experiment with DU-145 was > 100 µM (inactive) in each case. For the same molecule, the GI50 with UO-31, in the experiment on SK-OV-3, in the experiment on PC-3, with U-251, in the experiment on T47D and with LOX IMVI was > 100 µM (inactive) each time.
Take `COc1ccc(O)c(/C=N\Nc2ccccc2)c1`: the GI50 was 6.22 µM (inactive) in the experiment with A549; 16.7 µM (inactive) in the experiment with UACC-257; 0.021 µM (active) in the experiment on RPMI-8226; 22.5 µM (inactive) in the experiment with SK-MEL-5; 1.39 µM (inactive) in the experiment with MOLT-4; 6.32 µM (inactive) in the experiment on BT-549. In addition, the GI50 in the experiment with 786-0 is 32.3 µM (inactive); in the experiment on SK-MEL-28, 25.4 µM (inactive); in the experiment with HOP-92, 14 µM (inactive); in the experiment with DU-145, 25.5 µM (inactive); with UO-31, 4.14 µM (inactive); with SK-OV-3, > 100 µM (inactive). Also, the GI50 is < 0.01 µM (active) in the experiment on HCC 2998; 45.2 µM (inactive) with PC-3; 26.2 µM (inactive) in the experiment on U-251; 0.402 µM (active) with T47D; 2.44 µM (inactive) with LOX IMVI.
As to `NC(Cc1cc(Br)c(O)c(Br)c1)C(=O)O` (stereo unspecified), the GI50 in the experiment on SF-295, in the experiment on A549, in the experiment on UACC-257, in the experiment on RPMI-8226, in the experiment on SK-MEL-5 and in the experiment on CAKI-1 was > 100 µM (inactive) in each case. Further, the GI50 in the experiment on MOLT-4, in the experiment on BT-549, with CCRF-CEM, in the experiment with 786-0, in the experiment on SK-MEL-28 and with HOP-92 was > 100 µM (inactive) in each case. In addition, the GI50 in the experiment with DU-145, with SK-OV-3, in the experiment with PC-3, in the experiment on U-251, with T47D and in the experiment on LOX IMVI was > 100 µM (inactive) each time.
For the molecule `O=c1[nH]nc(Cc2ccc([N+](=O)[O-])cc2)n1CCO`, the GI50 with SF-295, with A549, with UACC-257, with RPMI-8226, in the experiment with SK-MEL-5 and in the experiment on CAKI-1 was > 100 µM (inactive) each time. Moreover, the GI50 in the experiment on BT-549, in the experiment with 786-0, in the experiment with SK-MEL-28, in the experiment with HOP-92, in the experiment on DU-145 and with UO-31 was > 100 µM (inactive) in each case. Moreover, the GI50 with SK-OV-3, in the experiment on HCC 2998, in the experiment on PC-3, with U-251, in the experiment on T47D and with LOX IMVI was > 100 µM (inactive) each time.
Regarding `CCOC(=O)C(C(=O)OCC)=C1SC(=N\c2ccccc2)/C(=N/c2ccccc2)N1c1ccccc1`, the GI50 in the experiment on SF-295 is 27 µM (inactive); in the experiment with A549 it was > 100 µM (inactive); in the experiment with RPMI-8226 it was > 100 µM (inactive); in the experiment on SK-MEL-5 it was 52.1 µM (inactive); in the experiment on CAKI-1, > 100 µM (inactive); in the experiment on MOLT-4, 13.3 µM (inactive). For the same molecule, the GI50 in the experiment on BT-549 is > 100 µM (inactive); with CCRF-CEM it was 18.4 µM (inactive); in the experiment with 786-0, > 100 µM (inactive); in the experiment on SK-MEL-28, > 100 µM (inactive); with HOP-92, 54 µM (inactive); with DU-145, > 100 µM (inactive). For the same molecule, the GI50 in the experiment with UO-31 is > 100 µM (inactive); in the experiment with SK-OV-3 it was > 100 µM (inactive); in the experiment on HCC 2998 it was 45.8 µM (inactive); in the experiment with PC-3 it was 58.7 µM (inactive); in the experiment with U-251 it was > 100 µM (inactive); with T47D, > 100 µM (inactive).
On to `Cc1cccc(/N=C/C=C(\Cl)c2ccc3ccccc3c2)c1`, for which the GI50 with SF-295 is 32.1 µM (inactive); with A549, 44.6 µM (inactive); in the experiment with UACC-257, 15.7 µM (inactive); in the experiment on RPMI-8226, 7.91 µM (inactive); in the experiment on SK-MEL-5, 17.7 µM (inactive); in the experiment with CAKI-1, 17.2 µM (inactive). For the same molecule, the GI50 with MOLT-4 is 2.56 µM (inactive); in the experiment with BT-549, 19.1 µM (inactive); with CCRF-CEM it was 4.15 µM (inactive); in the experiment with 786-0, 13.9 µM (inactive); with SK-MEL-28 it was 17.5 µM (inactive); in the experiment with HOP-92 it was 24.1 µM (inactive). For the same molecule, the GI50 in the experiment on DU-145 is 17.7 µM (inactive); in the experiment on UO-31, 16.2 µM (inactive); in the experiment with SK-OV-3, 23.4 µM (inactive); with PC-3, 21 µM (inactive); in the experiment on U-251 it was 14.8 µM (inactive); in the experiment with T47D, 4.88 µM (inactive). The GI50 in the experiment with LOX IMVI was 2.79 µM (inactive).
With `CC(C)[C@H]1C(=O)O[B@-](F)(c2ccccc2)/[N+]1=C\N(C)C`, the GI50 in the experiment on SF-295, in the experiment with A549, in the experiment with UACC-257, in the experiment on RPMI-8226, with SK-MEL-5 and in the experiment with MOLT-4 was > 100 µM (inactive) each time. The GI50 in the experiment on BT-549, with CCRF-CEM, in the experiment on 786-0, with SK-MEL-28, with HOP-92 and with DU-145 was > 100 µM (inactive) throughout. In addition, the GI50 in the experiment with UO-31, in the experiment on SK-OV-3, in the experiment on HCC 2998, in the experiment on PC-3, in the experiment with U-251 and in the experiment on T47D was > 100 µM (inactive) in each case. The GI50 in the experiment with LOX IMVI is > 100 µM (inactive).
For `Cn1cc2c(=O)n3ncn(-c4ccc(Br)cc4)c3nc2n1`, the GI50 with SF-295 was > 100 µM (inactive); in the experiment with A549, > 100 µM (inactive); in the experiment with UACC-257, > 100 µM (inactive); in the experiment with RPMI-8226, > 100 µM (inactive); in the experiment on SK-MEL-5, 87.9 µM (inactive); in the experiment with CAKI-1, > 100 µM (inactive). The GI50 with MOLT-4, in the experiment with BT-549, with CCRF-CEM, in the experiment on 786-0, in the experiment with SK-MEL-28 and with HOP-92 was > 100 µM (inactive) in each case. In addition, the GI50 in the experiment on DU-145, with UO-31, in the experiment on SK-OV-3, in the experiment with HCC 2998, with PC-3 and in the experiment on U-251 was > 100 µM (inactive) throughout. In addition, in the experiment on T47D, the GI50 is > 100 µM (inactive).
Take `COC(=O)/C(=N/NC(N)=O)C(C(=O)C(=O)Nc1ccc(C)cc1)c1nc2ccc(C(=O)c3ccccc3)cc2nc1O` (stereo unspecified): the GI50 was > 100 µM (inactive) in the experiment with SF-295; > 100 µM (inactive) in the experiment with A549; > 100 µM (inactive) in the experiment on UACC-257; > 100 µM (inactive) in the experiment on SK-MEL-5; 88.9 µM (inactive) in the experiment with CAKI-1; 50.4 µM (inactive) in the experiment on MOLT-4. In addition, the GI50 is > 100 µM (inactive) in the experiment on BT-549; 49 µM (inactive) in the experiment with CCRF-CEM; > 100 µM (inactive) in the experiment with 786-0; > 100 µM (inactive) with SK-MEL-28; 30.3 µM (inactive) in the experiment with HOP-92; > 100 µM (inactive) in the experiment on DU-145. Moreover, the GI50 was 30.5 µM (inactive) in the experiment on UO-31; > 100 µM (inactive) in the experiment with SK-OV-3; 34.2 µM (inactive) in the experiment on HCC 2998; > 100 µM (inactive) in the experiment on PC-3; > 100 µM (inactive) in the experiment with U-251; 41.9 µM (inactive) in the experiment with T47D. Besides, the GI50 in the experiment with LOX IMVI was > 100 µM (inactive).
On to `CC1(C)CC(=O)C(=CNc2nc(-c3ccc(Br)cc3)cs2)C(=O)C1`, for which the GI50 was 39 µM (inactive) in the experiment with SF-295; 51.4 µM (inactive) in the experiment on A549; 18.5 µM (inactive) in the experiment with UACC-257; 32.6 µM (inactive) with SK-MEL-5; 24.9 µM (inactive) with CAKI-1; 27.9 µM (inactive) with MOLT-4. The GI50 in the experiment on BT-549 is 17.7 µM (inactive); in the experiment with 786-0, 25.5 µM (inactive); in the experiment with SK-MEL-28 it was 34 µM (inactive); in the experiment on HOP-92, 33 µM (inactive); with DU-145, 43.9 µM (inactive); with UO-31 it was 21.9 µM (inactive). Also, the GI50 in the experiment on SK-OV-3 is 83 µM (inactive); in the experiment on HCC 2998, 28.9 µM (inactive); in the experiment on PC-3 it was 26.8 µM (inactive); in the experiment with U-251, 30.6 µM (inactive); with T47D, 32.9 µM (inactive); in the experiment on LOX IMVI, 20.9 µM (inactive).
